compound: Cc1ccccc1C(C(=O)NC1CCCCC1)N(C(=O)Cn1ccnc1C)c1cccc(F)c1 [IDH-C35] + CS(=O)(=O)CCNCc1ccc(-c2ccc3ncnc(Nc4ccc(OCc5cccc(F)c5)c(Cl)c4)c3c2)o1 [Lapatinib] (partner 2 µM); assay: relative viability (nuclei count vs DMSO), 5 days (fraction); higher = more cells survive; conditions: first compound 8 µM
Procedure, shortened: (§1)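 After 5 days of treatment, lung cancer cells in 1536-well plates were fixed and stained in a single step (final 0.05% Triton X-100, 1% formaldehyde, 1 ug/ml Hoechst) and their nuclei counted on 4× images. Treatment had been applied by pin tool the day after seeding as one drug alone or as a fixed anchor-drug dose with five library-drug doses (not always all listed) in √10 steps. Relative viability is the nuclei count of treated wells divided by that of vehicle wells, and values are medians of duplicate plates.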

Row | Cell Line | relative viability
1 | PC-3 [JPC-3] | 0.492

compound: CC1=C(C(=NN1)C)CC2=C(C3=C(S2)N(C(=O)N(C3=O)C)CC(C)C)C(=O)N4C[C@@H](CO4)O + CS(=O)(=O)N1CCN(Cc2cc3nc(-c4cccc5[nH]ncc45)nc(N4CCOCC4)c3s2)CC1 [Pictilisib] (partner 1 µM); assay: as above; conditions: first compound 0.0025 µM
Procedure, shortened: as §1

Row | Cell Line | relative viability
2 | NCI-H1395 | 0.63
3 | 201T | 0.708
4 | NCI-H1915 | 0.965
5 | HCC-827 | 1.24
6 | LXF-289 | 0.862
7 | NCI-H23 | 0.528
8 | NCI-H1299 | 0.772
9 | NCI-H647 | 0.494
10 | CAL-12T | 0.502
11 | NCI-H1651 | 0.579
12 | EPLC-272H | 0.317
13 | NCI-H2228 | 0.546
14 | NCI-H1792 | 0.33
15 | NCI-H1355 | 0.45
16 | NCI-H3122 | 0.644
17 | NCI-H1437 | 0.461

Row | Cell Line | relative viability
18 | NCI-H1755 | 0.445
19 | NCI-H2023 | 0.308
20 | HCC-15 | 0.76
21 | NCI-H1793 | 0.308
22 | PC-14 | 0.737
23 | EKVX | 0.544
24 | LC-2-ad | 0.558
25 | NCI-H1563 | 0.649
26 | NCI-H1944 | 0.351
27 | NCI-H1975 | 0.324
28 | RERF-LC-KJ | 0.623
29 | ABC-1 | 0.874
30 | NCI-H358 | 0.41
31 | NCI-H650 | 0.898
32 | PC-3 [JPC-3] | 0.896

same assay, conditions: first compound 0.007906 µM

Row | Cell Line | relative viability
33 | NCI-H1395 | 0.598
34 | 201T | 0.704
35 | NCI-H1915 | 0.927
36 | HCC-827 | 1.04
37 | LXF-289 | 0.82
38 | NCI-H23 | 0.489
39 | NCI-H1299 | 0.958
40 | NCI-H647 | 0.444
41 | CAL-12T | 0.57
42 | NCI-H1651 | 0.634
43 | EPLC-272H | 0.293
44 | NCI-H2228 | 0.356
45 | NCI-H1792 | 0.263
46 | NCI-H1355 | 0.562
47 | NCI-H3122 | 0.618
48 | NCI-H1437 | 0.44

Row | Cell Line | relative viability
49 | NCI-H1755 | 0.42
50 | NCI-H2023 | 0.288
51 | HCC-15 | 0.911
52 | NCI-H1793 | 0.395
53 | PC-14 | 1.01
54 | EKVX | 0.485
55 | LC-2-ad | 0.426
56 | NCI-H1563 | 0.68
57 | NCI-H1944 | 0.376
58 | NCI-H1975 | 0.298
59 | RERF-LC-KJ | 0.527
60 | ABC-1 | 0.844
61 | NCI-H358 | 0.348
62 | NCI-H650 | 0.826
63 | PC-3 [JPC-3] | 0.866

same assay, conditions: first compound 0.025 µM

Row | Cell Line | relative viability
64 | NCI-H1395 | 0.525
65 | 201T | 0.688
66 | NCI-H1915 | 0.897
67 | HCC-827 | 0.896
68 | LXF-289 | 0.779
69 | NCI-H23 | 0.523
70 | NCI-H1299 | 0.931
71 | NCI-H1651 | 0.651
72 | EPLC-272H | 0.29
73 | NCI-H2228 | 0.439
74 | NCI-H1792 | 0.273
75 | NCI-H1355 | 0.528
76 | NCI-H3122 | 0.642
77 | NCI-H1437 | 0.451
78 | NCI-H1755 | 0.44
79 | NCI-H2023 | 0.276
80 | HCC-15 | 0.846
81 | NCI-H1793 | 0.166
82 | PC-14 | 0.805
83 | EKVX | 0.457
84 | LC-2-ad | 0.716
85 | NCI-H1563 | 0.649
86 | NCI-H1944 | 0.356
87 | NCI-H1975 | 0.293
88 | RERF-LC-KJ | 0.557
89 | ABC-1 | 0.693
90 | NCI-H358 | 0.359
91 | NCI-H650 | 0.819
92 | PC-3 [JPC-3] | 0.732

same assay, conditions: first compound 0.07906 µM

Row | Cell Line | relative viability
93 | NCI-H1395 | 0.634
94 | 201T | 0.653
95 | NCI-H1915 | 0.878
96 | HCC-827 | 0.863
97 | LXF-289 | 0.804
98 | NCI-H23 | 0.494
99 | NCI-H1299 | 0.944
100 | NCI-H647 | 0.525
101 | CAL-12T | 0.588
102 | NCI-H1651 | 0.558
103 | EPLC-272H | 0.314
104 | NCI-H2228 | 0.352
105 | NCI-H1792 | 0.193
106 | NCI-H1355 | 0.405
107 | NCI-H3122 | 0.606
108 | NCI-H1437 | 0.46

Row | Cell Line | relative viability
109 | NCI-H1755 | 0.479
110 | NCI-H2023 | 0.23
111 | HCC-15 | 0.782
112 | NCI-H1793 | 0.226
113 | PC-14 | 0.767
114 | EKVX | 0.449
115 | LC-2-ad | 0.622
116 | NCI-H1563 | 0.672
117 | NCI-H1944 | 0.389
118 | NCI-H1975 | 0.301
119 | RERF-LC-KJ | 0.518
120 | ABC-1 | 0.948
121 | NCI-H358 | 0.375
122 | NCI-H650 | 0.824
123 | PC-3 [JPC-3] | 0.797

same assay, conditions: first compound 0.25 µM

Row | Cell Line | relative viability
124 | NCI-H1395 | 0.735
125 | 201T | 0.679
126 | NCI-H1915 | 0.975
127 | HCC-827 | 1.06
128 | LXF-289 | 0.826
129 | NCI-H23 | 0.651
130 | NCI-H1299 | 0.945
131 | NCI-H647 | 0.483
132 | CAL-12T | 0.518
133 | NCI-H1651 | 0.52
134 | EPLC-272H | 0.384
135 | NCI-H2228 | 0.443
136 | NCI-H1792 | 0.246
137 | NCI-H1355 | 0.5
138 | NCI-H3122 | 0.587
139 | NCI-H1437 | 0.465

Row | Cell Line | relative viability
140 | NCI-H1755 | 0.497
141 | NCI-H2023 | 0.236
142 | HCC-15 | 0.856
143 | NCI-H1793 | 0.272
144 | PC-14 | 0.842
145 | EKVX | 0.42
146 | LC-2-ad | 0.467
147 | NCI-H1563 | 0.735
148 | NCI-H1944 | 0.386
149 | NCI-H1975 | 0.315
150 | RERF-LC-KJ | 0.587
151 | ABC-1 | 0.737
152 | NCI-H358 | 0.375
153 | NCI-H650 | 0.926
154 | PC-3 [JPC-3] | 0.763

Source: the supplement of paper PMC10307832
